Results taken from patent US20020114854A1, “Chinese herb medicine composition for cancer prophylaxis and therapy” (priority 2001, published 2002).

Tests used:
Type in all cases: cell-based
[1] = system: esophagus cancer cell strain CE-81; test: survival rate of esophagus cancer cell strain CE-81 (CTAQ cell activity, OD 492 nm); design: dose or concentration left out as unconfirmed; conditions: treated 96 hours
Procedure: Regarding to the cell strain culture in following embodiments, the culture solution of Ham's F 12/DMEM (v/v 1:1) including 10% (v/v) fetus cattle serum (FCS) and antibiotics (100 μg/ml streptomycin, 100 IU/ml penicillin, 1 μg/ml amphotericin) is used for cultivating all cell strains at 37° C., 5% CO2. When the cell grows to 80% full, the cell is washed down by Trypsin-EDTA to do the sub-culture. For the sub-culture, the cell is rinsed by HBSS first, washed down by Trypsin-EDTA, and centrifugated at 1000 rpm, 25° C. for 10 minutes. Sequentially, the cell is diluted by four times culture solution to be continuously cultivated. In addition, the sub-culture is done once per week. […]
The esophagus cancer cell strain, CE-81, is washed down by Trypsin-EDTA, centrifugated, and diluted to a cell concentration of 10^6 cells/ml by FCS-free culture solution. […] After different treating time, the cell strain CE-81 is added […] cell activity detecting agent CTAQTM, and the cell activity is detected at OD 492 nm by multiple frequency scanner. […] Thus, the survival rate of cell (%) is obtained via comparing the determined value difference between after and before adding CTAQ with the standard curve by intercalation.

[2] = system: cervical cancer cell strain CC-135; test: survival rate of cervical cancer cell strain CC-135 (CTAQ cell activity); design: dose or concentration left out as unconfirmed; conditions: 10 p, 1.0 p or 0.1 p cis-Platine, treated 24 hours
[3] = system: ovary cancer cell strain OC-117; test: survival rate of ovary cancer cell strain OC-117 (CTAQ cell activity); conditions: 10 p (20 mg/ml) cis-Platine, treated over 48 hours
[4] = system: bladder cancer cell strain Bladder-3; test: survival rate of bladder cancer cell strain Bladder-3 (CTAQ cell activity); design: dose or concentration left out as unconfirmed; conditions: treated over 48 hours

`[NH2][Pt]([NH2])([Cl])[Cl]` [cis-Platine] was tested, and the “survival rate of CE-81” value [1] was “about 60%”, the “survival rate of CC-135” value [2] was “about 50%” and the “survival rate of OC-117” value [3] was “below 20%”. The “inhibition effect on Bladder-3 (in words)” value [4] was “significant inhibition effect”.
